Key:
Type in all cases: cell-based
E. coli, ATCC 53505 = test: Effect on E. coli growth (optical density at 540 nm); details: OD 540 nm at 1, 2 and 3 hours
Procedure: To test whether hyaluronic acid could influence cellular growth, E. coli, ATCC 53505 cells were cultured overnight in trypticase soy broth. The culture was then diluted to an optical density of 0.1 and hyaluronic acid (1 mg/ml or 5 mg/ml) in PBS was incubated with the E. coli suspension. A control comprising a suspension E. coli treated with PBS was also prepared. The test and control cells were incubated at 37° C. with shaking and the optical density of the bacterial suspensions at 540 nm was measured at 1, 2 and 3 hours after addition of the hyaluronic acid or PBS.
(§1) All the data are expressed as mean±SEM and were analyzed by one-way Analysis of Variance (ANOVA) followed by a Tukey-Kramer Multiple Comparisons Test. Differences were considered significant at the level of p<0.05.

[1] = system: E. coli with P family pili, ATCC 53505; test: E. coli adhesion to A431 epithelial cells; details: A431 cells pre-incubated 30 minutes, OD 540 nm of 2 hr culture of bound bacteria
Procedure: Cultured A431 cells were used as a vaginal epithelial model. A431 cells were obtained from American Cell Type Culture Collection, catalog # CRL-1555. A monolayer of A431 cells was grown on a 24-well tissue culture plate until confluent.
E. coli with P family pili, ATCC 53505, were cultured in trypticase soy broth (TSB) overnight. Phosphate buffered saline (PBS, control) or hyaluronic acid (Sigma catalog # H 1876) solutions at a concentration of 1 mg/ml or 5 mg/ml in PBS was added to the A431 cell layers, using a volume of 1.2 ml/well. After incubation for 30 minutes at 37° C., 0.7 ml of solution was removed from the wells and 0.5 ml of the bacteria suspension was added. […] After 60 minutes, the supernatant in each well was removed and the wells were rinsed thoroughly with PBS to remove all non-bound bacteria. Trypticase soy broth was then added to wells, and the whole system was incubated at 37° C. with shaking for 2 hours. Bacterial concentration was measured by the detection of optical density of bacterial suspension at 540 nm.
as §1

[2] = system: Candida albicans, ATCC 10231; test: Adherence of Candida albicans to A431 cells; details: for number of Candida albicans adhering to A431 cells: A431 cells pre-incubated 30 minutes, colony count
Procedure: A culture of Candida albicans, ATCC 10231, was started as a frozen bead in peptone/glucose culture medium and incubated at 37° C. with shaking for three days before the experiment. A monolayer of A431 cells, ATCC CRL-1555, was grown on a 24-well tissue culture plate until confluent. Hyaluronic acid at concentration of 1 mg/ml PBS or 5 mg/ml PBS was added to the wells (1.2 ml/well), and the plates were incubated for 30 minutes at 35° C. A control plate of confluent A431 cells was also prepared that received 1.2 ml/well PBS and no hyaluronic acid. After the 30 min incubation, 0.7 ml of solution was removed from the wells and 0.5 ml of yeast suspension (1×10^6 cfu/ml) was added. After 2 hours of incubation, the supernatant was removed from the wells and the wells were rinsed thoroughly with PBS to remove all non-bound yeast. Then, 0.2 ml of 0.25% trypsin/EDTA was added to each well and the plates were incubated at 35° C. for 15 min. Trypsinization was stopped by adding 1 ml of 10% fetal bovine serum in culture medium. The trypsinized cell/yeast suspension was centrifuged and re-suspended in 1 ml of the medium. Serial dilutions of the Candida albicans/A431 cell suspension were plated on Sabouraud's dextrose agar plates and incubated overnight at 35° C. The number of colonies on each plate was counted and the number of yeast attached to the cells in each well was calculated.
All the data are expressed as mean ±SEM and were analyzed by one-way Analysis of Variance (ANOVA) followed by a Tukey-Kramer Multiple Comparisons Test. Differences were considered significant at the level of p<0.05.

Q: How did the “effect on bacterial growth” value (E. coli, ATCC 53505; 1 mg/ml in PBS) turn out when hyaluronic acid was run?
A: Its value is “neither of the hyaluronic acid solutions had any effect on bacterial growth”.

Q: And the “effect on bacterial growth” value (E. coli, ATCC 53505; 5 mg/ml in PBS)?
A: The value was “neither of the hyaluronic acid solutions had any effect on bacterial growth”.

Q: And the “number of E. coli attached to A431 cells” value ([1]; 1 mg/ml in PBS)?
A: The value was “lesser effect”.

Q: And the “number of E. coli attached to A431 cells” value ([1]; 5 mg/ml in PBS)?
A: Its value is “significantly inhibited”.

Q: What about the “number of Candida albicans adhering to A431 cells” value ([2]; 1 mg/ml in PBS) of the same substance?
A: The value was “the effect was not so significant”.

Q: And the “number of Candida albicans adhering to A431 cells” value ([2]; 5 mg/ml in PBS)?
A: Its value is “significantly inhibited”.

Q: What about the “number of yeast colonies from treated A431 cells (FIG. 4)” value ([2]; versus PBS-treated A431 cells, concentration not given) of the same substance?
A: Its value is “fewer yeast colonies”.

Reference: US7238677B2, “Prevention of urogenital infections” (Kimberly-Clark Worldwide, Inc., priority 2003, dated 2007)
